Test system: double-stranded DNA
Assay: Alkylation and cleavage of double-stranded DNA by ImPyLDu86 (gel, cleavage bands by heating)
Format: biochemical
Details: cleavage mainly at site 1 and site 2, bands after heating, FIG. 1
Description: Reactivities of thus synthesized PyPyLDu86 and ImPyLDu86 with DNA were determined.
Locations of alkylation can be observed as cleavage bands by heating. As a result, the double-stranded DNA was cleaved mainly at the site 1 and the site 2 from a low concentration, and it was understood that the alkylation occurred simultaneously in the double-stranded DNA. No compound to generate such a cleavage has been known until now, and it can be surely regarded as an artificial restriction enzyme.

COC(=O)c1c(C)[nH]c2c1C13CC1CN(C(=O)/C=C/c1cc(NC(=O)c4nc(NC(C)=O)cn4C)cn1C)C3=CC2=O (stereo not shown) [ImPyLDu86]
ratio of cleavage of double-stranded DNA: 70%
